Laboratory results published in patent US20130079345A1, “[…] ACTIVE DISUBSTITUTED TRIAZINE DERIVATIVES” (BAYER INTELLECTUAL PROPERTY GMBH, priority 2010, published 2013).

Columns and labels:
CDK9/Cyclin T1 = biological target: T1, CDK9/Cyclin T1 (Homo sapiens, UniProt P50750); assay: LanthaScreen Eu Kinase Binding Assay, CDK9/Cyclin T1; settings: tracer 236, read-out: Affinity (Kd) CDK9/Cyclin T1
T1 construct: purchased Invitrogen
Procedure, shortened: (§1)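 TR-FRET competition binding with Alexa Fluor 647 tracer and Eu-anti-GST antibody; e.g. CDK2/Cyclin A 15 nM with tracer 236 60 nM (working solutions). Kinase buffer: HEPES 20 mM pH 8.0, MgCl2 10 mM, DTT 1 mM, Brij-35 0.01%; 8-point 1:3 series, 1 h at room temperature; Kd from sigmoidal dose-response curves.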

CDK9/Cyclin K = biological target: T2, CDK9/Cyclin K (Homo sapiens, UniProt P50750); assay: LanthaScreen Eu Kinase Binding Assay, CDK9/Cyclin K; settings: tracer 236, read-out: Affinity (Kd) CDK9/Cyclin K
T2 construct: purchased Invitrogen
T2 sequence (P50750 whole entry): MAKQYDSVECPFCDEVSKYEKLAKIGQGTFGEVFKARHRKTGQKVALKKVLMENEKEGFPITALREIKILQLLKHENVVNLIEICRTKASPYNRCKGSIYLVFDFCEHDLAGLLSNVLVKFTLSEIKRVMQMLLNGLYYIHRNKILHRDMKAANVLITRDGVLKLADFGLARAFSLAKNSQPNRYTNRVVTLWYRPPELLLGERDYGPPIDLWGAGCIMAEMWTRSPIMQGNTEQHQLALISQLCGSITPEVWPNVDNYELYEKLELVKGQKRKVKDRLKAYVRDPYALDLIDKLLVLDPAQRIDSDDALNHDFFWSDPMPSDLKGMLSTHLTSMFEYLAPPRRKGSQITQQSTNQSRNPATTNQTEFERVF
T2 sequence (O75909 whole entry partner): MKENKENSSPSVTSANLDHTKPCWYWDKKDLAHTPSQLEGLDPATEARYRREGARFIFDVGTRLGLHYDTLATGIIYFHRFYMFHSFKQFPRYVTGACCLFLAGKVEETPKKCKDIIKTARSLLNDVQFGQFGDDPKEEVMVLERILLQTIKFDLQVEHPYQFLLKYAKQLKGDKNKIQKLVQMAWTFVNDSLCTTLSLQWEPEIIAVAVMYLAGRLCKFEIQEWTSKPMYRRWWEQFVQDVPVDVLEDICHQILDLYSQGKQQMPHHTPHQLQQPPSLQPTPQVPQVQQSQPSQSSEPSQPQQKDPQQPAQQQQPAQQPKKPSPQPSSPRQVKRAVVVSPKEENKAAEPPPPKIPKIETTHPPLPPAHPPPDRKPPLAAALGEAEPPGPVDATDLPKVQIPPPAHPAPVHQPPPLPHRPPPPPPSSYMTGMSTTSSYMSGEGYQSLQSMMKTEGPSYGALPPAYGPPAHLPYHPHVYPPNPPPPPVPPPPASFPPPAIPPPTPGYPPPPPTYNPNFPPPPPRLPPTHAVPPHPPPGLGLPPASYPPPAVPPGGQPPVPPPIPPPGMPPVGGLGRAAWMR
Procedure, shortened: as §1

CDK7/CyclinH/Mat1 = biological target: T3, CDK7/CyclinH/Mat1 (Homo sapiens, UniProt P50613); assay: LanthaScreen Eu Kinase Binding Assay, CDK7; settings: tracer 236, read-out: Affinity (Kd) CDK7
T3 construct: purchased Carna Biosciences
T3 sequence (P50613 whole entry): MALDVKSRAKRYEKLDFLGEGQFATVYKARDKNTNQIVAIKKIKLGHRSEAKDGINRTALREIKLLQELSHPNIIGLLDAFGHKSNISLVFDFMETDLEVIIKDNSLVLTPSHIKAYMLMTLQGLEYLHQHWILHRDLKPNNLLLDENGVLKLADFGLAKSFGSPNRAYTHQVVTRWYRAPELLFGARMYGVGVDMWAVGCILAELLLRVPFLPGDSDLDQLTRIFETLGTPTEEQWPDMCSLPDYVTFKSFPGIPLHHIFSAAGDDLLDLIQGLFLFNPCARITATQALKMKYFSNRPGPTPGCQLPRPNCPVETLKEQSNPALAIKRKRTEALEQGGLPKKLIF
T3 sequence (P51946 whole entry partner): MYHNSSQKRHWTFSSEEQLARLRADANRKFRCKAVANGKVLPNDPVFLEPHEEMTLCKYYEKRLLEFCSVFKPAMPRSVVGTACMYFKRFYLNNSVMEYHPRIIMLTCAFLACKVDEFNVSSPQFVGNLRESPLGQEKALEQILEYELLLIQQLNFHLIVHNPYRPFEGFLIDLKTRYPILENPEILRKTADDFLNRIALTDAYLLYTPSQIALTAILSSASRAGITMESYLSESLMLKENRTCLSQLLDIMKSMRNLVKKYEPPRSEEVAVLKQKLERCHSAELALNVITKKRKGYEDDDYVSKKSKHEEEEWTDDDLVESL
T3 sequence (P51948 whole entry partner): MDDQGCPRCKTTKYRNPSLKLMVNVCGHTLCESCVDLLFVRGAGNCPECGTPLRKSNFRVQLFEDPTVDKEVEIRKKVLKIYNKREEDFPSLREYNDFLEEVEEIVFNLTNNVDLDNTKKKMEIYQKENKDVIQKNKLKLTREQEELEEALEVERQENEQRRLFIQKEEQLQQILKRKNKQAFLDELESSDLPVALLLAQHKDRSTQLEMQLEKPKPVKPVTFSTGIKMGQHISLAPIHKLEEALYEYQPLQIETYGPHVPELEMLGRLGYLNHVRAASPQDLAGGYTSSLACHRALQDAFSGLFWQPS
Procedure, shortened: as §1

CDK2/CyclinA = biological target: T4, CDK2/CyclinA (Homo sapiens, UniProt P24941); assay: LanthaScreen Eu Kinase Binding Assay, CDK2; settings: tracer 236, read-out: Affinity (Kd) CDK2
T4 construct: purchased Proqinase
Procedure, shortened: as §1

CDK9 = biological target: T5, CDK9 (Homo sapiens, UniProt P50750); assay: Lance Ultra KinaSelect Assay, CDK9; type: biochemical; settings: read-out: Inhibition (IC50) CDK9
T5 construct: purchased Invitrogen
T5 sequence (P50750 whole entry): as the sequence (P50750 whole entry) above
Experimental: This protocol describes how the Lance Ultra KinaSelect Assay was performed to determine half maximal inhibitory concentration (IC50) of compounds of general formula (I) and CDK/Cyclin complexes. The principle behind this enzymatic assay is based upon the phosphorylation of the ULight-Peptide Substrat. It is detected by using a specific EU-labeled anti-phospho peptide antibody. The binding of the Eu-labeled anti-phospho peptide antibody to the phosphorylated U Light labeled peptide gives rise to a FRET-signal. Binding of an inhibitor to the kinase prevents phosphorylation of the ULight-MBP Substrat, resulting in a loss of FRET.
The compounds of general formula (I) summarized in Table 5 were diluted from a 10 mM DMSO stock solution 1:10 in a total volume of 15 μL DMSO. This compound predilution was then serial diluted 1:3 over 8 steps in DMSO and briefly spun down. Each compound solution was now diluted 1:20 in Enzymatic Buffer (HEPES: 50 mM, pH: 7.5; MgCl2: 10 mM; EGTA: 1 mM; DTT: 2 mM; Tween-20: 0.01%), mixed thoroughly and spun down. For every sample, 2 μL of the diluted compound were mixed with 6 μL CDK/Cyclin/Substrat solution and […] in a well of a small volume 384 well plate (Corning Incorporated, Corning, N.Y., USA; order no. 3673). […] For positive controls, in each well 2 μL of DMSO solution (1% final DMSO assay concentration) was mixed with 6 μL CDK/Cyclin/Substrat (appropriate final concentration see Table 3) and 2 μL Tracer ATP solution (appropriate final concentration see Table 3). Positive and negative controls were calculated from at least 8 different sample wells. The 384 well plates were mixed in a Teleshaker plate mixer (Beckman Coulter, Brea, Calif., USA) at 2000 rpm for 40 sec, and incubated for 1 h at room temperature. Before reading, 10 μL detection buffer (Lance Detection Buffer 1×; EDTA: […]; Eu-Anti-P-MBP: see Table 3) was added. The FRET signal was measured at 340 nm excitation, 665 nm and 615 nm emission (for the kinase tracer and LanthaScreen Eu-AB, respectively) with an Envision spectrophotometer (Perkin Elmer, Waltham, Mass., USA) with 50 μs delay and 300 μs integration time. IC50 values were determined from the sigmoidal dose response curves with the software Quattro Workflow (Quattro GmbH, Munich, Germany).

MDAMB468 cells = assay: Cell viability assay, MDAMB468 cells; type: cell-based; settings: Homo sapiens, MDA-MB-468, 72 h, Cell Titer Glo
Experimental: (§2) HeLa- or MDAMB468-Cells or MATU ADR, H460, DU145, CACO-2 or B16F10 cells were maintained in RPMI 1640 or McCoy's 5A cell culture medium+glutamine (PAN Biotech GmbH, Aidenbach, Germany; order no. P04-22100; P04-05500) supplemented with 10% fetal calf serum “Gold” (PAA Laboratories GmbH, Pasching, Austria; order no. A15-151) and grown at 37° C., 5% CO2. For the cell viability assay, cells were seeded with a density of 400 (Hela cells, DSMZ Braunschweig order no. ACC57) or 800 (MDAMB468 cells, ATCC order no. HTB-132) per well in 25 μL in 384-well plates (Greiner Bio-One, Frickenhausen, Germany; order no. 781080). After overnight incubation at 37° C./5% CO2, 25 nL or 75 nL compound were added to each sample well by using BIOMEK FXP Laboratory Automation Workstation (Beckman Coulter, USA). Wells with cells and 0.1% or 0.3% DMSO in culture medium were used as positive controls, wells with cells and 10 μM staurosporine in culture medium were used as negative controls. The cells were incubated with the compounds for 72 h at 37° C./5% CO2. For measurement of cell viability […] Cell Titer Glo reagent (Promega, Madison, USA; order no. G7573), 1:2 diluted with cell culture medium, was added to each well. The 384well-plates were placed for 2 min on an orbital microplate shaker and incubated for further 10 min at room temperature to stabilize the luminescence signal. Luminescence was measured by Envision Plate Reader (Perkin Elmer, USA). EC50 values were calculated with the software Excel Fit (IDBS, Guildford, UK) from 3-fold dilution series comprising at least 8 concentrations in duplicates.

CDK2/CycE = biological target: T6, CDK2/CycE (Homo sapiens, UniProt P24941); assay: CDK2/CycE kinase assay (TR-FRET); type: biochemical; settings: ATP 10 μM, values given in μM
T6 construct: GST; purchased ProQinase GmbH (Freiburg, Germany); host or cells: insect cells (Sf-9)
Source text: CDK2/CycE-inhibitory activity of compounds of the present invention was quantified employing the CDK2/CycE TR-FRET assay as described in the following paragraphs.
Recombinant fusion proteins of glutathione S-transferase (GST) and human CDK2 and of GST and human CycE, expressed in insect cells (Sf-9) and purified by glutathion-sepharose affinity chromatography, were purchased from ProQinase GmbH (Freiburg, Germany). A biotinylated peptide biotin-Ttds-[…] (C-terminus in amide form), which can be purchased from e.g the company JERINI Peptide Technologies (Berlin, Germany), was used as a substrate for the kinase reaction.
For the assay, 50 nl of a 100-fold concentrated solution of the test compound in DMSO was pipetted into a well of a black low-volume 384-well microtiter plate (Greiner Bio-One, Frickenhausen, Germany), 2 μl of a solution of CDK2/CycE in aqueous assay buffer [50 mM Tris/HCl pH 8.0], 10 mM MgCl2, 1.0 mM dithiothreitol, 0.1 mM sodium ortho-vanadate, 0.01% (v/v) Nonidet-P40 (Sigma)] were added. The mixture was incubated at 22° C. for 15 min to allow pre-binding of the test compounds to the enzyme before the start of the kinase reaction. […] The resulting mixture was incubated at 22° C. for 25 minutes. The concentration of CDK2/CycE was adjusted depending on the activity of the enzyme lot and was chosen appropriately for measurements in the linear range of the assay. Typical concentrations were in the range of 130 ng/ml. The reaction was stopped by the addition of 5 μl of a solution of TR-FRET detection reagents (0.2 μM streptavidine-XL and 1 nM anti-RB(pSer807/pSer811)-antibody from BD Pharmingen [#558389] and 1.2 nM LANCE EU-W1024 labeled anti-mouse IgG antibody [Perkin-Elmer, product no. AD0077]) in an aqueous EDTA-solution (100 mM EDTA, 0.2% (w/v) bovine serum albumin in 100 mM HEPES/NaOH, pH 7.0).
The resulting mixture was incubated at 22° C. for one hour to allow the formation of a complex between the phosphorylated biotinylated peptide and the detection reagents. Subsequently, the amount of phosphorylated substrate was evaluated by measuring the resonance energy transfer from the Eu-chelate to the streptavidine-XL. Therefore, the fluorescence emissions at 620 nm and 665 nm after excitation at 350 nm were measured in a high time-resolved fluorometry (HTRF) reader, e.g. a Rubystar (BMG Labtechnologies, Offenburg, Germany) or a Viewlux (Perkin-Elmer). The ratio of the emissions at 665 nm and at […] was taken as a measure for the amounts of phosphorylated substrate. The data were normalised, i.e. enzyme reaction without inhibitor corresponds to 0% inhibition, and all other assay components in the absence of the enzyme correspond to 100% inhibition. IC50 values were calculated by a 4-parameter fit using in-house software.

HeLa cells = assay: Cell viability, HeLa cells; type: cell-based; settings: Homo sapiens
Experimental: as §2
Cultivated tumour cells (NCl-H460, human non-small cell lung carcinoma cells, ATCC HTB-177; DU 145, hormone-independent human prostate carcinoma cells, ATCC HTB-81; HeLa-MaTu, human cervical carcinoma cells, EPO-GmbH, Berlin; HeLa-MaTu-ADR, multidrug-resistant human cervical carcinoma cells, EPO-GmbH, Berlin; HeLa human cervical tumour cells, ATCC CCL-2; Caco-2 human colorectal carcinoma, ATCC HTB-37; B16F10 mouse melanoma cells, ATCC CRL-6475) were plated at a density of 5,000 cells/well (DU145, HeLa-MaTu-ADR), 3,000 cells/well (NCl-H460, HeLa-MaTu, HeLa), 1,500 cells/well (Caco-2), or 1,000 cells/well (B16F10) in a 96-well multititer plate in 200 μL of their respective growth medium supplemented with 10% fetal calf serum. After 24 hours, the cells of one plate (zero-point plate) were stained with crystal violet (see below), while the medium of the other plates was replaced by fresh culture medium (200 μl), to which the test substances were added in various concentrations (0 μM as well as in the range of 0.001 to 10 μM; the final concentration of the solvent dimethyl sulfoxide was 0.5%). The cells were incubated in the presence of test substances for 4 days. Cell proliferation was determined by staining the cells with crystal violet: The cells were fixed by adding 20 μl/measuring point of an 11% glutaric aldehyde solution at room temperature for 15 minutes. After three washing cycles of the fixed cells with water, the plates were dried at room temperature. The cells were stained by adding 100 μl/measuring point of a 0.1% crystal violet solution (pH 3.0). After three washing cycles of the stained cells with water, the plates were dried at room temperature. The dye was dissolved by adding 100 μl/measuring point of a 10% acetic acid solution. The extinction was determined by photometry at a wavelength of 595 nm. The change of cell number, in percent, was calculated by normalization of the measured values to the extinction values of the zero-point plate (equivalent to 0%) and the extinction of the untreated (0 μm) cells (equivalent to 100%). The IC50 values were determined by means of a 4 parameter fit using the company's own software.

T1 sequence (P50750 whole entry): as above
T1 sequence (O60563 whole entry partner): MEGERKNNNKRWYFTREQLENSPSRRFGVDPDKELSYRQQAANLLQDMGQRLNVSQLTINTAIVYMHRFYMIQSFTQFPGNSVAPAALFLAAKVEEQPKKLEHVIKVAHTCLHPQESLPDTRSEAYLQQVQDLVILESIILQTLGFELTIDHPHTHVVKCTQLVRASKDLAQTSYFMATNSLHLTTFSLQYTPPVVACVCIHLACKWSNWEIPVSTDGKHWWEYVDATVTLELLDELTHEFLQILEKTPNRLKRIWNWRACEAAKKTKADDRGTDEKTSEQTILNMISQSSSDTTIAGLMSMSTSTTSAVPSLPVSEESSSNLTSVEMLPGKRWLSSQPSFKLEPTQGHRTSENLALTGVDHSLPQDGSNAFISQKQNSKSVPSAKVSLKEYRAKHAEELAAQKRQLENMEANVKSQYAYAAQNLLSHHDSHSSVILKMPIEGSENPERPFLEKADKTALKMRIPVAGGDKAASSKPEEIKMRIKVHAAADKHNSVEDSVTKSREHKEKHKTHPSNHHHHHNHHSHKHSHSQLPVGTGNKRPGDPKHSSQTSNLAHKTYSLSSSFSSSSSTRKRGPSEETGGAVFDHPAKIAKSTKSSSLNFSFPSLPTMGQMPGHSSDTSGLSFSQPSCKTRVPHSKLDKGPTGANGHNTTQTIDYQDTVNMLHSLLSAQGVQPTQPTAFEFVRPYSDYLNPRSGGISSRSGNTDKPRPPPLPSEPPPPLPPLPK

Structure (SMILES)	Kd (CDK9/Cyclin T1)	Kd (CDK9/Cyclin K)	Kd (CDK7/CyclinH/Mat1)	Kd (CDK2/CyclinA)	IC50 (CDK9)	IC50 (MDAMB468 cells)	IC50 (CDK2/CycE)	IC50 (HeLa cells)
COc1ccccc1-c1ncnc(Nc2cccc(C(N)=O)c2)n1 [Compound E1, 3-[(4-(2-Methoxyphenyl)-1,3,5-triazin-2-yl)amino]benzamide]	0.136 µM	0.301 µM	> 10 µM	2.16 µM	0.837 µM	23 µM	–	–
COc1ccccc1-c1cc(Nc2cccc(CS(N)(=O)=O)c2)ncn1 [Ref1, C-{3-[6-(2-Methoxy-phenyl)-pyrimidin-4-ylamino]-phenyl}-methanesulfonamide, reference compound]	–	–	–	–	–	–	2.1 µM	3.4 µM
